Our source for the System morphology values is patent US8865191B2, “Lipid composition and skin care formulation containing the same” (Takasago International Corporation, priority 2003, dated 2014).

The nature of the data set: Liquid crystal dispersion system formation with changed component (i). The class given is physicochemical. To be noted: component (i): phytosterol 2, cetanol 5, Table 6 component 3, δ-tocopherol 0.1 parts by weight. The text has this:
The racemic ceramide was obtained by converting a racemic sphinganine obtained by the method by D. Shapiro., et al., (J. Am. Chem. Soc., 80, 2170(1958)) into its stearoyl form.

Regarding `CCCCCCCCCCCCCCCCCC(=O)NC(CO)C(O)CCCCCCCCCCCCCCC` (racemic) [racemic ceramide], the System morphology entry is given as “difficult to form a stable liquid crystal dispersion system”.
